Three molecules from ChEMBL document CHEMBL4184211, “Regioselectivity of thiouracil alkylation: Application to optimization of Darapladib synthesis” (Bioorg Med Chem Lett, 2018) can be followed below.

Structures are written as SMILES.

The target in test [1] is T1, Platelet-activating factor acetylhydrolase (Homo sapiens, UniProt Q13093).
T1 sequence (Q13093 whole entry): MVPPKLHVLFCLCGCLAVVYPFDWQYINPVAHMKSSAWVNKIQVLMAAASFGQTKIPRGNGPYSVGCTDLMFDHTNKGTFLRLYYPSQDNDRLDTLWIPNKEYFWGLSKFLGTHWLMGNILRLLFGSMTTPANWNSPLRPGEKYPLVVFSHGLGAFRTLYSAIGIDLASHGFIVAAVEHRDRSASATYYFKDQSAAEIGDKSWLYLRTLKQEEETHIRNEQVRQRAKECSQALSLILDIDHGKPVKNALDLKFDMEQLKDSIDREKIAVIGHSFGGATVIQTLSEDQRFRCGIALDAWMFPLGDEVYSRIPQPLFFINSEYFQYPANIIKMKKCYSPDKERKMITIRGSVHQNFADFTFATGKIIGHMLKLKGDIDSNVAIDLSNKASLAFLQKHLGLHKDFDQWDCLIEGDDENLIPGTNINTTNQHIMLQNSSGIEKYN
Put plainly: (§1) Inhibition of Lp-PLA2 in human plasma LDL fractions using 2-thio platelet-activating factor as substrate by […] dye based spectrophotometry.

The target of test [2] is T2, Platelet-activating factor acetylhydrolase (Homo sapiens) (UniProt Q13093).
T2 sequence (whole entry): T1 sequence (Q13093 whole entry)
The test is described as §1.

`CC(C)(C)OC(=O)COc1nc(SCc2ccc(F)cc2)nc2c1CCC2`: in test [1], the IC50 entry was “Not Active”.
Turning to `CC(C)(C)OC(=O)Cn1c(SCc2ccc(F)cc2)nc(=O)c2c1CCC2`, the 50% inhibitory concentration (IC50) in test [1] (read-out: IC50) is 52.4 nM. Also, the inhibition entry in test [2] is “Dose-dependent effect”.
As to `CCN(CC)CCN(Cc1ccc(-c2ccc(C(F)(F)F)cc2)cc1)C(=O)COc1nc(SCc2ccc(F)cc2)nc2c1CCC2`, the 50% inhibitory concentration (IC50) in test [1] (read-out: IC50) is above 100 nM.
